# Data as given in PubChem BioAssay (NCI).
#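 Tested at 5 concentrations; 48 h exposure; 96-well plates; endpoints linearly interpolated, else capped at highest concentration. TGI marks complete inhibition of growth.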
# Tests used:
# Assay in all cases: NCI-60 cell line screen, 48 h
# [1] = tested on: 786-0 renal
# [2] = tested on: A498 renal
# [3] = tested on: A549 NSCLC
# [4] = tested on: ACHN renal
# [5] = tested on: BT-549 breast
# [6] = tested on: CAKI-1 renal
# [7] = tested on: CCRF-CEM leukemia
# [8] = tested on: COLO 205 colon
# [9] = tested on: DU-145 prostate
# [10] = tested on: EKVX NSCLC
# [11] = tested on: HCC-2998 colon
# [12] = tested on: HCT-116 colon
# [13] = tested on: HCT-15 colon
# [14] = tested on: HL-60(TB) leukemia
# [15] = tested on: HOP-62 NSCLC
# [16] = tested on: HOP-92 NSCLC
# [17] = tested on: HS 578T breast
# [18] = tested on: HT29 colon
# [19] = tested on: IGROV1 ovarian
# [20] = tested on: K-562 leukemia
# [21] = tested on: KM12 colon
# [22] = tested on: LOX IMVI melanoma
# [23] = tested on: M14 melanoma
# [24] = tested on: MALME-3M melanoma
# [25] = tested on: MCF7 breast
# [26] = tested on: MDA-MB-231 breast
# [27] = tested on: MDA-MB-435
# [28] = tested on: MDA-N
# [29] = tested on: MOLT-4 leukemia
# [30] = tested on: NCI-H226 lung
# [31] = tested on: NCI-H23 lung
# [32] = tested on: NCI-H460 lung
# [33] = tested on: NCI-H522 lung
# [34] = tested on: NCI/ADR-RES ovarian
# [35] = tested on: OVCAR-3 ovarian
# [36] = tested on: OVCAR-4 ovarian
# [37] = tested on: OVCAR-5 ovarian
# [38] = tested on: OVCAR-8 ovarian
# [39] = tested on: PC-3 prostate
# [40] = tested on: RPMI-8226 leukemia
# [41] = tested on: RXF 393 renal
# [42] = tested on: SF-268 CNS
# [43] = tested on: SF-295 CNS
# [44] = tested on: SF-539 CNS
# [45] = tested on: SK-MEL-2 melanoma
# [46] = tested on: SK-MEL-28 melanoma
# [47] = tested on: SK-MEL-5 melanoma
# [48] = tested on: SK-OV-3 ovarian
# [49] = tested on: SN12C renal
# [50] = tested on: SNB-19 CNS
# [51] = tested on: SNB-75 CNS
# [52] = tested on: SR leukemia
# [53] = tested on: SW-620 colon
# [54] = tested on: T-47D breast
# [55] = tested on: TK-10 renal
# [56] = tested on: U251 CNS
# [57] = tested on: UACC-257 melanoma
# [58] = tested on: UACC-62 melanoma
# [59] = tested on: UO-31 renal
smiles,measurement,setting,value
COc1c(O)ccc(C2=Cc3ccc(O)cc3OC2)c1OC,TGI,[1],> 63.5 µM
same,TGI,[2],80.8 µM
same,TGI,[3],> 78.9 µM
same,TGI,[4],> 63.4 µM
same,TGI,[5],> 82.4 µM
same,TGI,[6],50 µM
same,TGI,[7],> 96.7 µM
same,TGI,[8],> 74 µM
same,TGI,[9],> 79.6 µM
same,TGI,[10],> 100 µM
same,TGI,[11],47.1 µM
same,TGI,[12],> 61.7 µM
same,TGI,[13],37.3 µM
same,TGI,[14],10.7 µM
same,TGI,[15],62.4 µM
same,TGI,[16],> 74 µM
same,TGI,[17],> 95.3 µM
same,TGI,[18],> 89.5 µM
same,TGI,[19],> 100 µM
same,TGI,[20],45.8 µM
same,TGI,[21],33.4 µM
same,TGI,[22],> 100 µM
same,TGI,[23],66.8 µM
same,TGI,[24],65.7 µM
same,TGI,[25],> 100 µM
same,TGI,[26],> 80.7 µM
same,TGI,[27],> 92.2 µM
same,TGI,[28],33.5 µM
same,TGI,[29],37 µM
same,TGI,[30],> 65.4 µM
same,TGI,[31],> 58.3 µM
same,TGI,[32],> 100 µM
same,TGI,[33],16.1 µM
same,TGI,[34],> 67.9 µM
same,TGI,[35],34 µM
same,TGI,[36],> 81.1 µM
same,TGI,[37],97.7 µM
same,TGI,[38],> 62.5 µM
same,TGI,[39],84.4 µM
same,TGI,[40],> 26.8 µM
same,TGI,[41],> 63.5 µM
same,TGI,[42],> 100 µM
same,TGI,[43],> 83.6 µM
same,TGI,[44],35.3 µM
same,TGI,[45],68 µM
same,TGI,[46],> 94 µM
same,TGI,[47],38.5 µM
same,TGI,[48],> 80.8 µM
same,TGI,[49],> 96.5 µM
same,TGI,[50],> 100 µM
same,TGI,[51],> 58.3 µM
same,TGI,[52],17.1 µM
same,TGI,[53],> 100 µM
same,TGI,[54],> 82.3 µM
same,TGI,[55],> 100 µM
same,TGI,[56],> 100 µM
same,TGI,[57],> 89.7 µM
same,TGI,[58],> 50.7 µM
same,TGI,[59],28.4 µM
O=c1oc2ccccc2c(O)c1/C=N\c1nc(-c2ccc(O)c(O)c2)cs1,TGI,[1],10.2 µM
same,TGI,[2],> 46.7 µM
same,TGI,[3],26.6 µM
same,TGI,[4],9.77 µM
same,TGI,[5],25.8 µM
same,TGI,[6],16.5 µM
same,TGI,[7],4.58 µM
same,TGI,[8],6.76 µM
same,TGI,[9],17.9 µM
same,TGI,[10],28.4 µM
same,TGI,[11],16.3 µM
same,TGI,[12],7.61 µM
same,TGI,[13],14.9 µM
same,TGI,[14],8.31 µM
same,TGI,[15],31.2 µM
same,TGI,[16],28.5 µM
same,TGI,[17],> 80.8 µM
same,TGI,[18],23.6 µM
same,TGI,[19],23.9 µM
same,TGI,[20],10.4 µM
same,TGI,[21],29.6 µM
same,TGI,[22],14.7 µM
same,TGI,[23],10.3 µM
same,TGI,[24],9.17 µM
same,TGI,[25],17.4 µM
same,TGI,[26],18.7 µM
same,TGI,[27],20.4 µM
same,TGI,[28],18.8 µM
same,TGI,[29],3.34 µM
same,TGI,[30],42.2 µM
same,TGI,[31],9.87 µM
same,TGI,[32],14.3 µM
same,TGI,[33],5.29 µM
same,TGI,[34],> 72.2 µM
same,TGI,[35],5.94 µM
same,TGI,[36],27.5 µM
same,TGI,[37],31.9 µM
same,TGI,[38],> 100 µM
same,TGI,[39],10.6 µM
same,TGI,[40],5.3 µM
same,TGI,[41],18.1 µM
same,TGI,[42],22.1 µM
same,TGI,[43],> 100 µM
same,TGI,[44],12.5 µM
same,TGI,[45],7.04 µM
same,TGI,[46],24.1 µM
same,TGI,[47],16.9 µM
same,TGI,[48],21.4 µM
same,TGI,[49],15.6 µM
same,TGI,[50],39.1 µM
same,TGI,[51],15.4 µM
same,TGI,[52],4.43 µM
same,TGI,[53],9.64 µM
same,TGI,[54],32 µM
same,TGI,[55],10.7 µM
same,TGI,[56],17.3 µM
same,TGI,[57],10.3 µM
same,TGI,[58],16.9 µM
same,TGI,[59],9.24 µM
